Experimental data from US10849966B2, “Methods for treating netosis and neutrophil activation” (TRUSTEES OF BOSTON UNIVERSITY, priority 2017, dated 2020).
Several values for one entry are separate records, joined by “and”; a condition that tells them apart may be missing. Equal entries are not always repeated. Entries after “also recorded” stand apart in the source; their conditions may differ.

Assays:
[1] = PK study in Panc1 xenograft mice; assay type: in vivo; settings: 15 mg/kg i.v. (n=3)
[2] = system: chronic kidney disease in Dahl S female rats; experiment: CKD in Dahl S female rats fed a HSD; assay type: in vivo, rat; settings: for albuminuria, effect in words / urinary albumin creatinine ratio (UACR), effect in words: 3 mg/kg iv × 1 dose, after 7 days, moderate-severe CKD; for Albuminuria / Creatinine Clearance / UACR (urinary albumin/urinary creatinine ratio) / Urinary Exosome Excretion: Mean ± SD
From the text: Legend: hu-6g8, humanized anti-DEspR monoclonal antibody, HSD, high salt diet induced via 2% NaCl water to drink ad lib; CKD, Dahl salt-sensitive hypertensive rats with chronic kidney disease with moderate nephrosclerosis (Raij scores˜300) induced with a high salt diet (2% NaCl); control, non-treated age- and sex-matched CKD rats.

[3] = system: Panc1-cancer stem cell pancreatic carcinomatosis xenograft; experiment: CSC-derived pancreatic carcinomatosis xenograft tumor model in nude rats, comorbidities; assay type: in vivo, rat; settings: treatment start 3 weeks after Panc1-CSC injection; vs untreated
From the text: FIG. 39 depicts a representative image of control untreated tumor rat (left panel) and ABTM-468 treated rat (right panel). Control rat was euthanized due to distress, treated rat was euthanized to obtain age- and tumor-duration-matched tumors. The xenograft tumor model was developed from Panc1-cancer stem cells injected into the peritoneal space 3 weeks prior to the start of treatment. T, tumors; GB, gall bladder.

[4] = system: activated neutrophils; experiment: dose-response survival assay of activated neutrophils (Trypan blue dye exclusion); assay type: cell-based; settings: live cells counted by Trypan blue dye exclusion; listed as 6g8-humab; read-out: IC50, inhibition of activated neutrophil survival
From the text: FIG. 6 depicts a graph comparison of functional activity of anti-DEspR fully humanized 6g8 mAb, 6g8-humab, and prototype murine anti-DEspR 6g8 mAb, 6g8-mumab.
FIGS. 17A-17C depict anti-DEspR-mab (hu6g8 mab). FIG. 17A depicts a diagram of DEspR, murine precursor mabs and humanized IgG and IgG4 mabs. Hu6g8 is notated as 6g8g7-hu-IgG4 raised against epitope 2, spanning the putative binding domain.
Described herein are the advantages of anti-DEspR mAb targeted AECs. DEspR, the dual endothelin1/signal peptide receptor,^9 is a validated target on human activated neutrophils and NETs. Hu6g8 binds human activated neutrophils (FIG. 18A) and NETs (FIG. 18B), as confirmed by Western Blot analysis of DEspR protein in human kidney (K), and activated neutrophil samples, act-Ns (FIG. 18C). Humanized anti-DEspR-mab (hu6g8 mab) is an ideal targeting moiety. Hu6g8 is the multi-species Human/NHPrimate/Rat reactive humanized-deimmunized anti-DEspR-mab with a hinge-stabilized IgG4S228P/kappa Fc region (FIG. 17A) to avoid (ADCC-antibody dependent cell-mediated cytotoxicity, CDC-complement dependent cytotoxicity), and to eliminate loss of targeting upon Fab arm exchange typical of native IgG4 isotype. […] Through recombinant DNA technology, the antibody design incorporates: a) avoidance of T-cell epitopes for low immunogenicity; b) optimization of heavy and light chain interactions for stability of variable domains; and, c) exclusion of destabilizing post-translational modification sites [e.g., deamidation, oxidation]. The targeting of DEspR^+ NETs, but sparing of DEspR(−) quiescent neutrophils via the anti-DEspR mAb is also novel. […] The use of human neutrophil-elastase cleavable linker is advantageous as this connector-peptide can be added by recombinant technology and HNE is enriched on NETs and actually a reason for the injurious properties of NETs. HNE is desirable for local therapeutic delivery [Owen C A, Campbell E J. J Leukocyte Biol 1999, 65 (2) 137-150], has specificity for small uncharged amino acids particularly alanine (A) and valine (V) [Meers P. Adv Drug Delivery Rev. 2001. 53 (3) 265-272]. […] The advantages of all three in an AEC is novel and robust as the targeted delivery and release of DNAse 1 on NETs can attain in vivo efficacy of what has been shown in vitro, the induction of macrophage uptake-and-clearance of NETs upon DNAse 1 digest of NETs DNA. In summary, targeting the intravascular NETs sites. The humanized anti-DEspR-mab with a hinge-stabilized IgG4/kappa Fc region to avoid Fab arm exchange in vivo and ensuing loss of targeting was selected. Additionally, this avoids immune effector functions of IgG1 mAbs (ADCC, CDC), which would worsen endothelial injury. […]

[5] = system: DEspR+/CD11b+ neutrophils; experiment: ex vivo treatment of ARDS patient whole blood, neutrophil survival (FACS); assay type: cell-based, human; set-up: baseline DEspR+/CD11b+ neutrophil percentage: concentration or dose not given beside the values; settings: for Observed decrease in neutrophil survival: 10 μg/ml; for baseline DEspR+/CD11b+ neutrophil percentage: equals baseline DEspR+/CD11b+ neutrophils
Procedure: Neutrophils were gated for unique size/granularity properties via FSC (size) and SSC (granularity) gating. […] FSC, forward side scatter. SSC, side scatter. N=4-5 replicates; mean+/−SD. Whole blood incubated at 37 C for 24 hours (reg incubator, rotating, in HEPES buffer) for A02 and A03. 37 C for 6 hours for A04, A05, and A06. ABTM-468(cho) at 10 ug/mL. *, P=0.0286 Mann-Whitney Rank Sum Test. ARDS patients survivors: A01, A04, A05, A06. ARDS non-survivor: A02.

[6] = complete blood counts in Panc1-CSC xenograft (CDX) tumor model; assay type: in vivo, rat; settings: CBC weekly from day 21, vs non-treated controls
Procedure: Complete blood counts (CBC) were measured weekly starting day 21-1 week after treatment onset on day 14 (14 days after Panc1-CSC xenograft (CDX) tumor establishment).

Substance: hu-6g8: fully humanized anti-DEspR mAb with a S228P hinge-stabilized IgG4/kappa FC region
- half-life [1]: 40.8 h
- albuminuria, effect in words [2]: decreased
- urinary albumin creatinine ratio (UACR), effect in words [2]: decreased
- albuminuria, effect in words ([2]; listed as ABTM-468): decreased; also recorded: reduced
- urinary albumin creatinine ratio (UACR), effect in words ([2]; listed as ABTM-468): decreased; also recorded: reduced
- Albuminuria ([2]; D7 (day of dosing, baseline)): 404 ± 190 mg/kg/day
- Creatinine Clearance ([2]; D7 (day of dosing, baseline)): 104 ± 35 µL/min
- UACR (urinary albumin/urinary creatinine ratio) ([2]; D7 (day of dosing, baseline)): 25450 ± 8980
- Urinary Exosome Excretion ([2]; D7 (day of dosing, baseline)): 663 ± 224 mg/kg/day
- Albuminuria ([2]; D14, hu-6g8 3 mg/kg IV at D7): 92.5 ± 95 mg/kg/day
- Creatinine Clearance ([2]; D14, hu-6g8 3 mg/kg IV at D7): 168 ± 118 µL/min
- UACR (urinary albumin/urinary creatinine ratio) ([2]; D14, hu-6g8 3 mg/kg IV at D7): 2285 ± 2337
- Urinary Exosome Excretion ([2]; D14, hu-6g8 3 mg/kg IV at D7): 876 ± 348 mg/kg/day
- cancer comorbidities (gut ischemia, ascites, gut dysfunction) [3]: reduced gut ischemia, serous or hemorrhagic ascites, distended gut, and ischemic-hemorrhagic gut (black gut) and gut dysfunction
- IC50 [4]: < 8 nM and 7.7 nM
- Observed decrease in neutrophil survival ([5]; patient A02 (Died), incubation 24 hrs, 79 hrs from ARDS diagnosis, baseline DEspR+/CD11b+ 59.2%, P 0.029, listed as anti-DEspR humanized IgG4S228P antibody): decreased survival
- baseline DEspR+/CD11b+ neutrophil percentage ([5]; patient A02): 59.2%
- Observed decrease in neutrophil survival ([5]; patient A03 (DNR, D.), incubation 24 hrs, 96 hrs from diagnosis, baseline DEspR+/CD11b+ 1.5%): No effect
- baseline DEspR+/CD11b+ neutrophil percentage ([5]; patient A03): 1.5%
- Observed decrease in neutrophil survival ([5]; patient A04 (Surv), incubation 6 hrs, 96 hrs from diagnosis, baseline DEspR+/CD11b+ 0.9%, listed as ABTM-468): No effect
- Observed decrease in neutrophil survival ([5]; patient A04 (Surv), incubation 6 hrs, 96 hrs from diagnosis, baseline DEspR+/CD11b+ 0.9%, listed as anti-DEspR humanized IgG4S228P antibody): no effect
- baseline DEspR+/CD11b+ neutrophil percentage ([5]; patient A04): 0.9%
- Observed decrease in neutrophil survival ([5]; patient A05 (Surv), incubation 6 hrs, 72 hrs from diagnosis, baseline DEspR+/CD11b+ 3%, listed as ABTM-468): No effect
- Observed decrease in neutrophil survival ([5]; patient A05 (Surv), incubation 6 hrs, 72 hrs from diagnosis, baseline DEspR+/CD11b+ 3%, listed as anti-DEspR humanized IgG4S228P antibody): no effect
- baseline DEspR+/CD11b+ neutrophil percentage ([5]; patient A05): 3%
- Observed decrease in neutrophil survival ([5]; patient A06 (Surv), incubation 6 hrs, 48 hrs from diagnosis, baseline DEspR+/CD11b+ 16.1%, n.s., listed as anti-DEspR humanized IgG4S228P antibody): Some efficacy is observed but variable
- baseline DEspR+/CD11b+ neutrophil percentage ([5]; patient A06): 16.1%
- numbers of quiescent neutrophils (neutropenia side effect) ([6]; treatment onset day 14): does not cause decreased numbers of quiescent neutrophils
- platelet counts [6]: does not cause decreased platelet counts
- red blood cell counts [6]: does not cause decreased platelet counts or red blood cell counts
